In PMC10892041, “Vanadium Complexes with Thioanilide Derivatives of Amino Acids: Inhibition of Human Phosphatases and Specificity in Various Cell Models of Metabolic Disturbances” (Pharmaceuticals, 2024):

Assays:
[1] = biological target: T1, LAR (Homo sapiens, UniProt P10586); experiment: Inhibition of human recombinant tyrosine phosphatase LAR (DiFMUP fluorescence); type: biochemical; settings: for Inhibition of LAR, percentage of inhibition of the control: 1 µM, control solvent only, SD did not exceed 6%
T1 sequence (P10586 1352-1607 limits assumed): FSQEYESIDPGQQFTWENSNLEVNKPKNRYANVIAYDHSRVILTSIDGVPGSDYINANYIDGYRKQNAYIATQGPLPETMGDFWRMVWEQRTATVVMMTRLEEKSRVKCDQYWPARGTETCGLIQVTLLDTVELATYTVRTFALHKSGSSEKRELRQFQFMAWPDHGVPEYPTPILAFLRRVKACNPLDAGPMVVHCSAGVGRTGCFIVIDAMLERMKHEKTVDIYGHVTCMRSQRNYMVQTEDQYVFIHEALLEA
How it was run: (§1)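 Human recombinant phosphatases (SHP1 400 ng/mL, SHP2 50 ng/mL, LAR 5 ng/mL final) were pre-incubated 10 min with compound in 25 mM MOPS pH 7.0, 50 mM NaCl, 1 mM DTT, 0.05% Tween-20. DiFMUP (0.1 mM final) was added for 20 min at 23 °C and fluorescence read at 355/560 nm. Screening used 1 µM compound (% inhibition vs vehicle); IC50 also reported.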

[2] = biological target: T2, SHP1 (Homo sapiens, UniProt P29350); experiment: Inhibition of human recombinant tyrosine phosphatase SHP1 (DiFMUP fluorescence); type: biochemical; settings: for Inhibition of SHP1, percentage of inhibition of the control: 1 µM, control solvent only, SD did not exceed 6%; for Log IC50 ± SD SHP1: logarithm of IC50
T2 construct: purchased Sigma-Aldrich
How it was run: as §1

[3] = biological target: T3, SHP2 (Homo sapiens, UniProt Q06124); experiment: Inhibition of human recombinant tyrosine phosphatase SHP2 (DiFMUP fluorescence); type: biochemical; settings: for Inhibition of SHP2, percentage of inhibition of the control: 1 µM, control solvent only, SD did not exceed 6%
T3 construct: purchased Sigma-Aldrich
T3 sequence (Q06124 1-593): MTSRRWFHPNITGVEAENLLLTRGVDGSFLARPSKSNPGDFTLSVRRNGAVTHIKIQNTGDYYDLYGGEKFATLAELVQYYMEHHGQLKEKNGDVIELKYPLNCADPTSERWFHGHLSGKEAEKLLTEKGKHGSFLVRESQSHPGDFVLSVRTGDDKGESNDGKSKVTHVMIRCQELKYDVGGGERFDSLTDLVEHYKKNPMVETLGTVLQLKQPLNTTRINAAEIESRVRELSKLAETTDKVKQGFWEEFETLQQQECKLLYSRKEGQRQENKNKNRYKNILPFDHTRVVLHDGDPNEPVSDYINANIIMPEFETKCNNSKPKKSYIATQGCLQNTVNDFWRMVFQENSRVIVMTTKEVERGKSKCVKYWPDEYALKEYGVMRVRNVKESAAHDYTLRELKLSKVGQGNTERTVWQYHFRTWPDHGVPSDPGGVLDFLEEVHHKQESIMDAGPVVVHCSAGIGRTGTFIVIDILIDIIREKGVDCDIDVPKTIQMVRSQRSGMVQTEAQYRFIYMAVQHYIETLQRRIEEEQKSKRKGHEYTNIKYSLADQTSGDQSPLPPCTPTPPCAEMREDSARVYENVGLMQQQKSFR
How it was run: as §1

[4] = test system: myocytes C2C12; experiment: Scintillation proximity assay, transport of [14C]-deoxy-D-glucose into myocytes C2C12; type: cell-based, mouse; settings: 50 µM; control solvent only
Experimental: The myocyte C2C12 cell line (ATCC CRL-1772), a subclone of myoblasts from mouse muscles, was cultured according to standard protocol in DMEM supplemented with 10% fetal calf serum, 100 IU/ml penicillin, and […] streptomycin at 37 °C in 5% CO2. Cells were pleated on a 96-well microplate and after reach confluence were differentiated in medium with 2% horse serum. Differentiation medium was changed every 72 h.
Scintillation proximity assay (SPA) is a method to measure the real-time accumulation of radiolabeled substrates by adherent cells with no filtration needed. Radioactivity concentrated closer to the scintillator embedded in the plastic bottom of each well provides a stronger signal than the radiolabeled substrate in the culture medium. Uptake of radiolabeled 2-deoxy-D-[U-14C]-glucose was conducted based on previous descriptions.
After 24 h incubation, the tested complexes were added. After 2 h incubation at 37 °C in 5% CO2, the medium was changed to low-glucose medium (1000 mg/L), and the tested complexes were added again, with further incubation for 4 h being conducted.
For cells proceeded as above, 2-deoxy-D-[U-14C]-glucose (250–350 mCi/mmol, NEC720A, PerkinElmer) solution in KRB with a total activity of 0.03 mCi was added to each well. […] Non-specific radioactivity was subtracted from each result (cpm). Two independent experiments with triplicates were conducted.

[5] = test system: hepatocytes HepG2; experiment: Lipid accumulation in the cell model of NAFLD (oleic acid, AdipoRed); type: cell-based, human; settings: 10 µM; 24 h
Experimental: The human hepatocyte HepG2 cell line (ATCC HB-8065) was cultured according to standard protocol in DMEM supplemented with 10% fetal bovine serum, 100 IU/mL penicillin, and […] streptomycin at 37 °C in 5% CO2. Cells were pleated on a 96-well microplate and were used at 18–24 h after seeding.
The induction of hepatic lipid accumulation and studies on the effect of vanadium complexes on this process were carried out based on previous descriptions. […] After 16–24 h, the standard medium was changed for DMEM with 0.1% BSA fatty acid free and 0.5 mM oleic acid as sodium salt and tested compounds were added. Cells were incubated for 24 h, and the intracellular lipid content was evaluated using AdipoRed Adipogenesis Assay Reagent (Lonza) according to the manufacturer’s protocol. Hepatocytes were washed with PBS with calcium and magnesium, and 5 µL AdipoRed Reagent in 200 µL PBS was added, with the mixture incubated for 10 min at 22 °C. Fluorescence signal proportional to lipid content in cells was measured at excitation in 530 nm and emission in 550 nm using a multimodal microplate reader POLARStar Omega (BMG Labtech). The results were normalized to the untreated control (cells with solvent only), wherein the intensity of fluorescence was taken as 100%.

T2 sequence (P29350 whole entry): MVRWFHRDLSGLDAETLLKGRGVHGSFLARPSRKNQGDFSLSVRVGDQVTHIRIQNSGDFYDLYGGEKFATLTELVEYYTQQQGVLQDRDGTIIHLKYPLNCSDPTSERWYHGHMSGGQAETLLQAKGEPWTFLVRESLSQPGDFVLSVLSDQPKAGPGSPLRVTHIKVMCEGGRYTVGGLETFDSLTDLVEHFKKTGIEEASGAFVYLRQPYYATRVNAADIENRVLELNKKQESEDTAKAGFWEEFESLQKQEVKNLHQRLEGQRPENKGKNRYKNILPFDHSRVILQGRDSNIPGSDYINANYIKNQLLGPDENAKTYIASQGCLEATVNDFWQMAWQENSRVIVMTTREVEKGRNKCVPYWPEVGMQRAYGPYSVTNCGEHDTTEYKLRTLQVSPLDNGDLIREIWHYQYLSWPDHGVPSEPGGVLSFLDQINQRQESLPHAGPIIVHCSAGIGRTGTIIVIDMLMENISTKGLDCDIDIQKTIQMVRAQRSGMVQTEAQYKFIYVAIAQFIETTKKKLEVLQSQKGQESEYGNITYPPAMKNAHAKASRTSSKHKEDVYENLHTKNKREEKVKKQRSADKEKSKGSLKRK

| SMILES | IC50 [1] | Inhibition of LAR, percentage of inhibition of the control [1] | IC50 [2] | Inhibition of SHP1, percentage of inhibition of the control [2] | Log IC50 ± SD SHP1 [2] | IC50 [3] | Inhibition of SHP2, percentage of inhibition of the control [3] | Transport of [14C]-deoxy-D-glucose into C2C12 myocytes, % of the control [4] | Lipid accumulation in hepatocytes after steatosis induction with oleic acid, % of control [5] |
| --- | --- | --- | --- | --- | --- | --- | --- | --- | --- |
| Cc1occc(=O)c1[O-].Cc1occc(=O)c1[O-].[O]=[V+2] [BMOV, bis(maltolato)oxidovanadium(IV), reference compound] | 140 nM | 58% | 14 nM | 76% | −7.86 ± 0.03 | 8 nM | 82% | 125 % of control | did not have any significant effect |
| O=S(=O)([O-])[O-].[O]=[V+2] [VOSO4, reference compound] | 95 nM | 44% | 17 nM | 70% | −7.77 ± 0.02 | 13 nM | 77% | 110 % of control | did not have any significant effect |
